Data: ChEMBL document CHEMBL1138752, “2-Pyrazolyl-N(6)-substituted adenosine derivatives as high affinity and selective adenosine A(3) receptor agonists” (J Med Chem, 2004)

Tests used:
[1] = molecular target: Adenosine receptors; A1 & A3 (Homo sapiens) (UniProt P30542+P0DMS8); assay: Ratio of binding to adenosine A1 and adenosine A3 receptor; type: protein assay
[2] = molecular target: Adenosine receptors; A2a & A3 (Homo sapiens) (UniProt P0DMS8+P29274); assay: Ratio of binding to adenosine A2a and adenosine A3 receptor; type: protein assay
[3] = molecular target: T1, Adenosine receptor A3 (Homo sapiens, UniProt P0DMS8); assay: biochemical
T1 sequence (P0DMS8 whole entry): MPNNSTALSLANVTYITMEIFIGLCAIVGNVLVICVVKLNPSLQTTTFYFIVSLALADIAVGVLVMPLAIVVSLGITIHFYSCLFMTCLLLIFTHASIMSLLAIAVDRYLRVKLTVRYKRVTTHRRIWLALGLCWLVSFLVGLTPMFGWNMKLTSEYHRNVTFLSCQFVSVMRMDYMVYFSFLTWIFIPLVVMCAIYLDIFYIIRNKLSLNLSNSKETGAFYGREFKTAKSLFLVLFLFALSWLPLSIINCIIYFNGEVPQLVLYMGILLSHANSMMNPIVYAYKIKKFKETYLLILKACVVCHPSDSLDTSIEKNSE
Description: Displacement of [125I]-AB MECA from recombinant human adenosine A3 receptor expressed in HEK cells

[4] = molecular target: Adenosine receptor A2a (Homo sapiens, UniProt P29274); assay: biochemical
Description: Displacement of [3H]CGS-21680 from recombinant human adenosine A2a receptor expressed in HEK cells

[5] = molecular target: T2, Adenosine receptor A1 (Homo sapiens, UniProt P30542); assay: biochemical
T2 sequence (P30542 whole entry): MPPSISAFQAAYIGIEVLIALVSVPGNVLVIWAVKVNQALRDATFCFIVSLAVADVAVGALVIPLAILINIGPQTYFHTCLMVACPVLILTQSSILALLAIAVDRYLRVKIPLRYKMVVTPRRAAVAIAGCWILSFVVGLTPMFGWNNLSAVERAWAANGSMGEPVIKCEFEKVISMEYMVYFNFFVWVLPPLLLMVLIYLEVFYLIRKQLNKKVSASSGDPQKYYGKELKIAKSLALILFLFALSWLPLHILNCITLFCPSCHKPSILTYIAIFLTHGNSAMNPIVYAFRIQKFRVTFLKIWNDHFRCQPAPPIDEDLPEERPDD
Description: Displacement of [3H]CCPA from recombinant human adenosine A1 receptor expressed in CHO cells

Adenosine receptors; A2a & A3 (Homo sapiens), sequence (P29274 whole entry, looked up, one chain of several): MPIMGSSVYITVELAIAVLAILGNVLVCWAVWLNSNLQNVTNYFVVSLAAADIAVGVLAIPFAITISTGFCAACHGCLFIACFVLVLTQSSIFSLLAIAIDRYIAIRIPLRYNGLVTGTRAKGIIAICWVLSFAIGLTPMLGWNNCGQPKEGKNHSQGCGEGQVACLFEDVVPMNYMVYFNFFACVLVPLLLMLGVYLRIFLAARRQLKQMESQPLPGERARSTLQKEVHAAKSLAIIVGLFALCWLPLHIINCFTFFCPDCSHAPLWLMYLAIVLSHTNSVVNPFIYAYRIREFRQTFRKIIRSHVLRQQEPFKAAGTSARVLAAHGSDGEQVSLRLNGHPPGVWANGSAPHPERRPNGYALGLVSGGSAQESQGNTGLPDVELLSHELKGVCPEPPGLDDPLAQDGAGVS
Adenosine receptor A2a, sequence (P29274 whole entry): as the sequence (P29274 whole entry, looked up, one chain of several) above

SMILES	Selectivity [1]	Selectivity [2]	Ki [3]	Ki [4]	Ki [5]
CNc1nc(-n2cc(C(=O)NCc3ccc(Cl)cc3)cn2)nc2c1ncn2C1O[C@H](CO)[C@@H](O)[C@H]1O (stereo partly specified)		25	0.157 µM	4 µM	2 µM
CNc1nc(-c2cnn(Cc3ccccc3)c2)nc2c1ncn2C1O[C@H](CO)[C@@H](O)[C@H]1O (stereo partly specified)	13	> 50	0.097 µM	> 5 µM	1.3 µM
CCCNc1nc(-c2cnn(Cc3ccccc3)c2)nc2c1ncn2C1O[C@H](CO)[C@@H](O)[C@H]1O (stereo partly specified)			0.148 µM		
COc1ccc(-c2cnn(-c3nc(NCc4cccc(I)c4)c4ncn(C5O[C@H](CO)[C@@H](O)[C@H]5O)c4n3)c2)cc1 (stereo partly specified)	14	10	0.32 µM	4 µM	4.5 µM
CCCNC(=O)c1cnn(-c2nc(NC)c3ncn(C4O[C@H](CO)[C@@H](O)[C@H]4O)c3n2)c1 (stereo partly specified)	> 200	> 200	0.019 µM	> 4 µM	> 4 µM
COc1ccc(-c2cnn(-c3nc(N)c4ncn([C@@H]5O[C@H](CO)[C@@H](O)[C@H]5O)c4n3)c2)cc1			> 6 µM	0.19 µM	
CNC(=O)c1cnn(-c2nc(N)c3ncn([C@@H]4O[C@H](CO)[C@@H](O)[C@H]4O)c3n2)c1 [REGADENOSON ANHYDROUS]			> 10 µM		
OC[C@H]1OC(n2cnc3c(NCc4cccc(I)c4)nc(-n4cc(-c5nccc6ccccc56)cn4)nc32)[C@H](O)[C@@H]1O (stereo partly specified)	7	< 1	0.109 µM	0.052 µM	0.77 µM
CCNC(=O)c1cnn(-c2nc(NC)c3ncn(C4O[C@H](CO)[C@@H](O)[C@H]4O)c3n2)c1 (stereo partly specified)			0.049 µM		
CNC(=O)c1cnn(-c2nc(NC)c3ncn([C@@H]4O[C@H](CO)[C@@H](O)[C@H]4O)c3n2)c1	> 80	> 80	0.073 µM	> 6 µM	
Nc1nc(-c2cnn(Cc3ccccc3)c2)nc2c1ncn2[C@@H]1O[C@H](CO)[C@@H](O)[C@H]1O			> 10 µM	0.0015 µM	

More lines, now with the values ahead:

Selectivity [1]	Selectivity [2]	Ki [3]	Ki [4]	Ki [5]	SMILES
90	100	0.041 µM	4 µM		CCNc1nc(-n2cc(-c3ccc(OC)cc3)cn2)nc2c1ncn2[C@@H]1O[C@H](CO)[C@@H](O)[C@H]1O
45	50	0.065 µM	3.3 µM	3 µM	CCCNc1nc(-n2cc(-c3ccc(OC)cc3)cn2)nc2c1ncn2C1O[C@H](CO)[C@@H](O)[C@H]1O (stereo partly specified)
24	> 22	0.17 µM	> 3.9 µM	4.2 µM	OC[C@H]1OC(n2cnc3c(NCc4cccc(I)c4)nc(-n4cc(-c5ccccn5)cn4)nc32)[C@H](O)[C@@H]1O (stereo partly specified)
			> 5 µM		CNc1nc(-n2cc(-c3ccccn3)cn2)nc2c1ncn2[C@@H]1O[C@H](CO)[C@@H](O)[C@H]1O
> 200	> 300	0.015 µM	> 5 µM		CNc1nc(-n2cc(-c3ccc(OC)cc3)cn2)nc2c1ncn2[C@@H]1O[C@H](CO)[C@@H](O)[C@H]1O
600	> 800	0.006 µM	> 5 µM	3.8 µM	CNc1nc(-n2cc(-c3ccncc3)cn2)nc2c1ncn2C1O[C@H](CO)[C@@H](O)[C@H]1O (stereo partly specified)
> 600	> 500	0.01 µM	> 5 µM	> 6 µM	CNc1nc(-n2cc(-c3ccc(Cl)cc3)cn2)nc2c1ncn2C1O[C@H](CO)[C@@H](O)[C@H]1O (stereo partly specified)
> 1600	> 1600	0.003 µM	> 5 µM	> 5 µM	CNc1nc(-n2cc(-c3ccc4ccccc4n3)cn2)nc2c1ncn2C1O[C@H](CO)[C@@H](O)[C@H]1O (stereo partly specified)
		0.107 µM	1.8 µM		CCNc1nc(-n2cc(-c3ccccn3)cn2)nc2c1ncn2[C@@H]1O[C@H](CO)[C@@H](O)[C@H]1O
1300	1200	0.002 µM	2.5 µM	2.6 µM	CNc1nc(-n2cc(-c3nc4ccccc4o3)cn2)nc2c1ncn2C1O[C@H](CO)[C@@H](O)[C@H]1O (stereo partly specified)
900	2000	0.002 µM	4.1 µM	1.8 µM	CNc1nc(-n2cc(-c3cccnc3)cn2)nc2c1ncn2C1O[C@H](CO)[C@@H](O)[C@H]1O (stereo partly specified)
